# Data reported in patent US6333422A, “Thermosensitive cyclotriphosphazene-platinum complex conjugate, its preparation method and anticancer agent containing the same” (Korea Institute of Science and Technology, priority 2000, dated 2001).
# Columns and labels:
# [1] = test system: mouse leukemia L1210 cell line; test: In vivo (i.p.) activity: survival of BDF1 mice implanted i.p. with leukemia L1210 cells
# Description: 2. Determination of in vivo (i.p.) activity
# (1) Samples: Example 2, Example 6, Example 7 and Example 11
# (§1) (2) Cancer cell line: mouse leukemia L1210 cell line
# (3) Experimental method: The leukemia L1210 cells(1×10^5 cells/0.1 ml) obtained from DBA/2 donor mice were injected intraperitoneally to the BDF1 mice (6-8 weeks old, 8 mice per group). The samples were either dissolved in PBS solution or suspended in 0.5% Tween 80 depending on their solubility. These sample solutions were administered via intraperitoneal injection once a day for 5 consecutive days or at day 1, 5, and 9 after the cancer cell implantation at variable dosages. The survival rate was determined by observing the mice each day. By comparing with the average survival time of the control group (where no chemical treatment was performed), the percent average increase in the survival time(T/C, %) was calculated to determine the anticancer activity.
# [2] = M. J. Cleare, Biochimie 60, 835 (1978); cited from earlier work
# [3] = test system: mouse leukemia L1210 cell line; test: In vitro cell growth inhibition of mouse leukemia L1210 cells (trypan blue dye exclusion); format: cell-based; conditions: viable cell number after 24, 48 and 72 hours, read-out: ED50 (concentration exhibiting 50% of cell growth inhibition)
# Description: 1. Determination of in vitro activity
# as §1
# After adding the samples each serially diluted by logarithmic dose to the cells, cells were cultured in an incubator at 37° C. and under 5% CO2 atmosphere.
# The viable cell number was determined after 24, 48 and 72 hours by using trypan blue dye exclusion test.
# [4] = Lower critical solution temperature (LCST, cloud point) by UV/VIS spectrophotometer; format: physicochemical
# From the text: Thermosensitive polymers in the present invention refer to the polymers that can be solubilized in water at low temperatures but precipitates above a certain critical temperature due to the rapid decrease of their water-solubility. When such a phase transition is reversible, the phase transition temperature is called a lower critical solution temperature(LCST) or a cloud point. Below LCST, the hydrogen bonding between the polymer-water molecules is stronger than the hydrophobic interaction between the polymer-polymer molecules. As the temperature increases, however, the hydrogen bonding between the polymer-water molecules weakens whereas the hydrophobic interaction between the polymer-polymer molecules increases resulting in the precipitation of polymers in aqueous solution.
# Elemental analysis of carbon, hydrogen, nitrogen in the compounds of the present invention was performed in the Special Analysis Center at KIST by using carbon, hydrogen and nitrogen analyzer (Perkin Elmer), and phosphorous and platinum analysis was performed using Polyscan 61E ICP. Hydrogen and phosphorous nuclear magnetic resonance spectra were obtained using Varian to Gemini-300, and LCST was measured by using Perkin-Elmer Lamda 18 UV/VIS spectrophotometer.
Molecule,IC50 [3],Lower critical solution temperatures [4],further results
"N.N.O=C([O-])C1(C(=O)[O-])CCC1.[Pt+2] [Carboplatin, reference compound]",5900 nM,–,T/C (survival time vs control) ([1]; dose 40 mgkg^-1): 168.0%; LD50 [2]: 180 mg/kg
"N.N.[Cl][Pt][Cl] [Cisplatin, reference compound]",700 nM,–,T/C (survival time vs control) ([1]; dose 4 mgkg^-1): 163.0%
{NP[(OCH2 CH2)2 OC2 H5 ][L-Asp.Pt(dach)]}3 [Example 7],400 nM,42.0 °C,T/C (survival time vs control) ([1]; dose 40 mgkg^-1): 200.8%; T/C (survival time vs control) ([1]; dose 60 mgkg^-1): 226.7%; T/C (survival time vs control) ([1]; dose 80 mgkg^-1): > 271.7%
{NP[(OCH2 CH2)2 OC2 H5 ][L-Asp.Pt(dmach)]}3 [Example 8],–,35.0 °C,–
{NP[(OCH2 CH2)2 OC2 H5 ][L-Asp.Pt(dmpda)]}3 [Example 6],–,46.5 °C,T/C (survival time vs control) ([1]; dose 30 mgkg^-1): 146.1%; T/C (survival time vs control) ([1]; dose 60 mgkg^-1): 162.0%
{NP[(OCH2 CH2)2 OC2 H5 ][L-Mal.Pt(dach)]}3 [Example 5],–,39.0 °C,–
{NP[(OCH2 CH2)2 OC3 H7 ][L-Asp.Pt(dach)]}3 [Example 9],–,22.0 °C,–
{NP[(OCH2 CH2)2 OC4 H9 ][L-Asp.Pt(dach)]}3 [Example 10],–,12.0 °C,–
{NP[(OCH2 CH2)2 OCH3 ][L-Asp.Pt(dach)]}3 [Example 2],400 nM,92.0 °C,T/C (survival time vs control) ([1]; dose 30 mgkg^-1): 217.3%; T/C (survival time vs control) ([1]; dose 60 mgkg^-1): > 293.8%; T/C (survival time vs control) ([1]; dose 90 mgkg^-1): > 511.0%
{NP[(OCH2 CH2)2 OCH3 ][L-Asp.Pt(dmach)]}3 [Example 3],–,74.5 °C,–
{NP[(OCH2 CH2)2 OCH3 ][L-Asp.Pt(dmpda]}3 [Example 1],–,98.0 °C,–
{NP[(OCH2 CH2)2 OCH3 ][L-Glu.Pt(dach)]}3 [Example 4],–,82.0 °C,–
{NP[(OCH2 CH2)7 OCH3 ][L-Asp.Pt(dach)]}3 [Example 11],200 nM,84.0 °C,T/C (survival time vs control) ([1]; dose 30 mgkg^-1): 197.0%; T/C (survival time vs control) ([1]; dose 60 mgkg^-1): 229.2%; T/C (survival time vs control) ([1]; dose 90 mgkg^-1): 204.2%
{NP[(OCH2 CH2)12 OCH3 ][L-Asp.Pt(dach)]}3 [Example 12],–,above 100 °C,–
